Data from article PMC2956102 (International Journal of Molecular Sciences, 2010).
Like-named read-outs stand apart in the source and are kept apart here.

Key:
[1] = target: intestinal maltase; assay: Intestinal α-glucosidase (maltase) inhibition assay, rat intestinal acetone powder; type: biochemical; details: for IC50: 37 mM maltose, pH 6.9, 37 °C, 30 min, means ± S.E.M., n = 3
Procedure: (§1) The assessment of α-glucosidase inhibitory activity was performed according to our previous report. Briefly, 100 mg of rat intestinal acetone powder was homogenized in 3 mL of 0.9% NaCl solution. After centrifugation (12,000 g × 30 min), 10 μL of the supernatant (maltase = 0.68 units/mg protein, sucrase = 0.10 units/mg protein) was incubated with 70 μL of substrate solution (37 mM maltose, 54 mM sucrose), and 20 μL of sample at various concentrations in 0.1 M phosphate buffer pH 6.9 at 37 °C for 30 min (maltase assay) and 60 min (sucrase assay). The mixtures were suspended in boiling water for 10 min to stop the reaction. The concentrations of glucose released from the reaction mixtures were determined by glucose oxidase method. Acarbose was used as a positive control for this assay.
(§2) The reaction was performed according to the above assay (α-glucosidase and pancreatic α-amylase). Results were expressed as a percentage inhibition of the corresponding control values.

[2] = cited from earlier work
[3] = target: T1, intestinal sucrase (Rattus norvegicus, UniProt P23739); assay: Intestinal α-glucosidase (sucrase) inhibition assay, rat intestinal acetone powder; type: biochemical; details: for Percentage intestinal sucrase inhibition in combination with acarbose, compared with acarbose alone: 1 μM compound + 3.12 μM acarbose, Figure 3; for IC50: 54 mM sucrose, pH 6.9, 37 °C, 60 min, means ± S.E.M., n = 3
T1 construct: 100 mg of rat intestinal acetone powder was homogenized in 3 mL of 0.9% NaCl solution; tissue Sigma Chemical Co. Ltd. (St. Louis, MO); host or cells: rat intestine (acetone powder, supernatant of the saline homogenate)
Procedure: as §1, with “method.” for “method. Acarbose was used as a positive control for this assay.”
as §2

[4] = target: T2, porcine pancreatic α-amylase (Sus scrofa, UniProt P00690); assay: Pancreatic α-amylase inhibition assay (starch, DNS reagent); type: biochemical; details: for Percentage pancreatic α-amylase inhibition in combination with acarbose, compared with acarbose alone: 1.0 μM compound + 3.12 μM acarbose, Figure 4; for IC50: 1 g/L starch, amylase 3 U/mL, pH 6.9, 10 min, means ± S.E.M., n = 3
T2 construct: purchased Sigma Chemical Co. Ltd. (St. Louis, MO)
T2 sequence (P00690 16-511): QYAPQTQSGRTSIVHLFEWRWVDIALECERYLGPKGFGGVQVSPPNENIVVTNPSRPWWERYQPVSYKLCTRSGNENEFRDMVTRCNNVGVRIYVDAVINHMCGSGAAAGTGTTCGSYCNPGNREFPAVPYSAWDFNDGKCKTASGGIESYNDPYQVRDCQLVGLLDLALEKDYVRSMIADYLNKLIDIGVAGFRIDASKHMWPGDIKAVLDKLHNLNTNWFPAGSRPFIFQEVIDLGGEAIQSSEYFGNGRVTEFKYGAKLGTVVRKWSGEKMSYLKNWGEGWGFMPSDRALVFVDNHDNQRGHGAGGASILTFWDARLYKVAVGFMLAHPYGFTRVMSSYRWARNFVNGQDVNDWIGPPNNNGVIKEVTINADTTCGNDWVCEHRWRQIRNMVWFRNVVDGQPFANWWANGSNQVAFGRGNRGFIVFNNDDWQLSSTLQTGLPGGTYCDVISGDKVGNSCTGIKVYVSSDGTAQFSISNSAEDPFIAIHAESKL
Procedure: The pancreatic α-amylase inhibition assay was performed according to our previous reports. Porcine pancreatic α-amylase was dissolved in 0.1 M phosphate buffer saline, pH 6.9. The various concentrations of test compounds were added to solution containing in 1 g/L starch and phosphate buffer. The reaction was initiated by adding amylase (3 U/mL) to the incubation medium to a final volume of 500 μL. After 10 min, the reaction was stopped by adding 0.5 mL dinitrosalicylic (DNS) reagent (1% 3,5-dinitrosalicylic acid, 0.2% phenol, 0.05% Na2SO3, and 1% NaOH in aqueous solution) to the reaction mixture. The mixtures were heated at 100 °C for 10 min and 500 μL of 40% potassium sodium tartarate solution was added to the mixtures to stabilize the color. After cooling to room temperature in a cold water bath, absorbance was recorded at 540 nm using a spectrophotometer.
as §2

[5] = target: T1, intestinal sucrase; details: cited from earlier work
[6] = tested on: pancreatic β-cell line; parameters: method as in PMID 15631504; details: ref [16]; cited from earlier work
[7] = tested on: intestinal α-glucosidase; details: combination of acarbose and compound; ref [8]; cited from earlier work
[8] = tested on: 3T3-L1 adipocytes; parameters: method as in PMID 18179781; details: H2O2- or TNF-α-induced, via inhibition of JNK signal pathway; ref [15]; cited from earlier work
[9] = tested on: yeast α-glucosidase; parameters: method as in PMID 15558946; details: ref [9]; cited from earlier work

T1 sequence (P23739 1014-1841 limits assumed): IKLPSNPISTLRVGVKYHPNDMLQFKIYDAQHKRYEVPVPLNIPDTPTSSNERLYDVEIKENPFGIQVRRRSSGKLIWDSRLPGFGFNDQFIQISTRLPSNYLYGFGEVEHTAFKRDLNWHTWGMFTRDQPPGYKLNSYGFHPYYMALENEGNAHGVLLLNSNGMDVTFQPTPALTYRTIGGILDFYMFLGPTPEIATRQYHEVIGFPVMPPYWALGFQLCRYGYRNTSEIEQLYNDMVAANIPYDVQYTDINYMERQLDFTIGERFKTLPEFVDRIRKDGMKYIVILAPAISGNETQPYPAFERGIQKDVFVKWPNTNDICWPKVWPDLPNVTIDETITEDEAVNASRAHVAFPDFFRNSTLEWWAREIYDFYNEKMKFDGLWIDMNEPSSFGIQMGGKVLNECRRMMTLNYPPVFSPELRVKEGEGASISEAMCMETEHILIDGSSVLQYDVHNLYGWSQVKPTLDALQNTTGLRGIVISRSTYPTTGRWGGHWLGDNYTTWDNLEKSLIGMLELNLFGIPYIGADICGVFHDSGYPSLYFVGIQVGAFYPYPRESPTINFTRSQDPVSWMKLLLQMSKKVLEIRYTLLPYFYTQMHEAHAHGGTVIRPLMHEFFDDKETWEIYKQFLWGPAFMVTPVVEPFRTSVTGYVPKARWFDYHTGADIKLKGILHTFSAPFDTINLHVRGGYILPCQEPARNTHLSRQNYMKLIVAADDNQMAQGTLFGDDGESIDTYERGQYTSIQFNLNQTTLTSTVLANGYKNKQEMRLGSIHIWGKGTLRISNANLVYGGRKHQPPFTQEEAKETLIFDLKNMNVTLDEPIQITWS
T1 sequence (P23739 2-1013 partner limits assumed): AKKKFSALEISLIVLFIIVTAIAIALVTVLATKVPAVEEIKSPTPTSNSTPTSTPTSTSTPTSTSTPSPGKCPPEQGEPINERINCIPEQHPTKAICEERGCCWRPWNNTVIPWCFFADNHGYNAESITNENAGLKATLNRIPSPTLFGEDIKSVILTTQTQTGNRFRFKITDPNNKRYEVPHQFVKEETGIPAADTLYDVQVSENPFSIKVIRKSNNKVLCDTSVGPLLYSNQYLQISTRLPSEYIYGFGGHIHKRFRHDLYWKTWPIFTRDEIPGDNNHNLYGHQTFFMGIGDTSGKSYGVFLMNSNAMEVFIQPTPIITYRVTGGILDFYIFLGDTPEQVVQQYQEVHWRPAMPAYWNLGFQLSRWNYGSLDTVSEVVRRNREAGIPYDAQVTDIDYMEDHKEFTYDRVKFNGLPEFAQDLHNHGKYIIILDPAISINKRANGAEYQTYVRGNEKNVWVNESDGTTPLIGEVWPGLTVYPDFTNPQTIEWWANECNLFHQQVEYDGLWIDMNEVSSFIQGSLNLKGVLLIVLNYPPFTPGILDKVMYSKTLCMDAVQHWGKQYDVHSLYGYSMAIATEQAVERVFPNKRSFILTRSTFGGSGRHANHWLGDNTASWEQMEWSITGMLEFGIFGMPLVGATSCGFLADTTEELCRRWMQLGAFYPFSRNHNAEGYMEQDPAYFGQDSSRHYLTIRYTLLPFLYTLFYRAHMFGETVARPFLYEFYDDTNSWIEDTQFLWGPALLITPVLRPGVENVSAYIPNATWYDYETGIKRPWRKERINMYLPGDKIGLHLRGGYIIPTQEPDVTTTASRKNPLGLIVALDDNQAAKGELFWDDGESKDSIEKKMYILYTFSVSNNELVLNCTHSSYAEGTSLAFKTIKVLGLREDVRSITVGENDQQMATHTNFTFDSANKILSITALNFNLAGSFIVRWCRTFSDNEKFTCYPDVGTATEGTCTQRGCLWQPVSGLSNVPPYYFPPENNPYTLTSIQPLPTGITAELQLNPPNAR

Structure (SMILES) | IC50 [1] [µM] | Intestinal sucrase inhibitory activity [3] | Percentage intestinal sucrase inhibition in combination with acarbose, compared with acarbose alone [3] | IC50 [3] [µM] | Pancreatic α-amylase inhibitory activity [4] | Percentage pancreatic α-amylase inhibition in combination with acarbose, compared with acarbose alone [4] | IC50 [4] [µM] | Insulin secretion [6] | also measured
C[C@H]1O[C@H](O[C@H]2[C@H](O)[C@@H](O)[C@@H](O[C@H]3[C@H](O)[C@@H](O)C(O)O[C@@H]3CO)O[C@@H]2CO)[C@H](O)[C@@H](O)[C@@H]1N[C@H]1C=C(CO)[C@@H](O)[C@H](O)[C@H]1O (stereo partly drawn) [Acarbose] | 3 ± 1 | – | – | – | – | – | – | – | Reduction in the incidence of diabetes ([2]; acarbose treatment, ref [18]): 25%; Reduction of the postprandial peak of glycemia ([2]; acarbose treatment, ref [19]): 20%; Most common adverse effect ([2]; dose-dependent, flatulence, meteorism and abdominal distention, ref [19]): gastrointestinal disturbance; Duration of the effect on postprandial glycemia ([2]; ref [19]): ≤ 5 h; Dose exceeding the saturated binding of α-glucosidase, no increase in inhibitory effect ([2]; ref [20],[21]): > 300 mg/day; Lowest dose with clinical effects ([2]; ref [20],[21]): 150 mg/day
Oc1cc(O)c2cc(O)c(-c3ccc(O)c(O)c3)[o+]c2c1 [Cyanidin, Cyanidin chloride] | > 3000 | weak | No change | 1420 ± 250 | weak | significantly increased | 380 ± 10 | – | Percentage intestinal maltase inhibition in combination with acarbose, compared with acarbose alone ([1]; 1 μM compound + 0.05 μM acarbose, Figure 2): No change
OC[C@H]1O[C@@H](Oc2cc3c(O[C@@H]4O[C@H](CO)[C@@H](O)[C@H](O)[C@H]4O)cc(O)cc3[o+]c2-c2ccc(O)c(O)c2)[C@H](O)[C@@H](O)[C@@H]1O [Cyanidin-3,5-diglucoside, cyanidin-3,5-diglucoside] | > 3000 | inactive | synergistic effects | > 2000 | no inhibitory activity | did not show significant changes | > 1000 | – | –
OC[C@H]1O[C@@H](Oc2cc3c(O)cc(O)cc3[o+]c2-c2ccc(O)c(O)c2)[C@H](O)[C@@H](O)[C@H]1O [Cyanidin-3-galactoside, cyanidin-3-galactoside chloride] | > 3000 | – | synergistic effects | – | no inhibitory activity | did not show significant changes | > 1000 | directly stimulate insulin secretion | Type of inhibition against intestinal sucrase ([5]; kinetic model, ref [8]): mixed type; IC50 ([5]; previously reported value, ref Adisakwattana et al. [8]): 500 ± 50 µM; Effect of combination with acarbose on intestinal α-glucosidase inhibition [7]: synergistic effect
OC[C@H]1O[C@@H](Oc2cc3c(O)cc(O)cc3[o+]c2-c2ccc(O)c(O)c2)[C@H](O)[C@@H](O)[C@@H]1O [Cyanidin-3-glucoside, cyanidin-3-glucoside chloride] | > 3000 | – | synergistic effects | 970 ± 50 | – | significantly increased | 300 ± 10 | directly stimulate insulin secretion | Action against induced insulin resistance [8]: protective action
C[C@@H]1O[C@@H](OC[C@H]2O[C@@H](Oc3cc4c(O)cc(O)cc4[o+]c3-c3ccc(O)c(O)c3)[C@H](O)[C@@H](O)[C@@H]2O)[C@H](O)[C@H](O)[C@H]1O [cyanidin-3-rutinoside] | – | – | – | – | – | – | – | – | Manner of inhibition of yeast α-glucosidase [9]: non-competitive
